Measured values published in ChEMBL document CHEMBL4507292 (2021).

Experiments:
[1] = target: L-type calcium channel, benzothiazepine site (Cav1.2 alpha-1C) (Homo sapiens, UniProt Q13936); test: Inhibition of Calcium Channel L-Type, Benzothiazepine at 10 µM in the Eurofins-Panlabs radioligand binding assay (Eurofins_assay_214510); set-up: ligand concentration 2 nM, non-specific ligand with concentration 10 µM Diltiazem, incubation time 3h, incubation temperature 4 °C; settings: male, Wistar, rat, rat whole brain preparation, probe [3H] Diltiazem, 2 nM; compound concentration 10 uM; target entry is the homologue from another species
[2] = target: L-type calcium channel, dihydropyridine site (Cav1.2 alpha-1C) (Homo sapiens, UniProt Q13936); test: Inhibition of Calcium Channel L-Type, Dihydropyridine at 10 µM in the Eurofins-Panlabs radioligand binding assay (Eurofins_assay_214600); set-up: ligand concentration 0.1 nM, non-specific ligand with concentration 1 µM Nitrendipine, incubation time 90 min, incubation temperature 25 °C; settings: Wistar, rat, rat cerebral cortex preparation, probe [3H] Nitrendipine, 0.1 nM; compound concentration 10 uM; target entry is the homologue from another species
[3] = target: 5-hydroxytryptamine receptor 1A (Homo sapiens, UniProt P08908); test: Inhibition of Serotonin (5-Hydroxytryptamine) 5-HT1A at compound concentration of 10.0 uM in the Eurofins-Panlabs radioligand binding assay (Eurofins_assay_271110); set-up: ligand concentration 1.5 nM, non-specific ligand with concentration 10 uM Metergoline, incubation time 60 min, incubation temperature 25 C
Sequence of 5-hydroxytryptamine receptor 1A (P08908 whole entry): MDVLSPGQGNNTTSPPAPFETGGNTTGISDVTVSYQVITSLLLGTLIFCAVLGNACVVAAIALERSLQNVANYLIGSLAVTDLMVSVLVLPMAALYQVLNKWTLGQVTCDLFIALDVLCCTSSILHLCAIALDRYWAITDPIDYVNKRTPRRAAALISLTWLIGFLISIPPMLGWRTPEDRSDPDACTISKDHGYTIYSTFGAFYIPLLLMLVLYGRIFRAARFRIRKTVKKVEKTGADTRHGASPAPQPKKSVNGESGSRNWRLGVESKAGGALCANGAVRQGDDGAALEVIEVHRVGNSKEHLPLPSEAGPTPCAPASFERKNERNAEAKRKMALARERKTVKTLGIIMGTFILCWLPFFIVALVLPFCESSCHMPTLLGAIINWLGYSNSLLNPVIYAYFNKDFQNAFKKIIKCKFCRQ

[4] = (§1) Inhibition of Phosphodiesterase PDE4 at compound concentration of 10.0 uM in the Eurofins-Panlabs enzyme assay (Eurofins_assay_154000); type: protein assay, Homo sapiens; set-up: substrate with concentration 1.01 uM [3 H]cAMP + cAMP, incubation time 20 min, incubation temperature 25 C
Homo sapiens [5] = species on record: Homo sapiens; test: as §1; type: protein assay; set-up: substrate with concentration 1.01 uM [3 H]cAMP + cAMP, incubation time 20 min, incubation temperature 25 C
[6] = target: T1, Muscarinic acetylcholine receptor M5 (Homo sapiens) (UniProt P08912); test: Inhibition of Muscarinic M5 at 10 µM in the Eurofins-Panlabs radioligand binding assay (Eurofins_assay_253010); set-up: ligand concentration 0.8 nM; settings: Compound concentration 10.0 uM
T1 sequence (whole entry): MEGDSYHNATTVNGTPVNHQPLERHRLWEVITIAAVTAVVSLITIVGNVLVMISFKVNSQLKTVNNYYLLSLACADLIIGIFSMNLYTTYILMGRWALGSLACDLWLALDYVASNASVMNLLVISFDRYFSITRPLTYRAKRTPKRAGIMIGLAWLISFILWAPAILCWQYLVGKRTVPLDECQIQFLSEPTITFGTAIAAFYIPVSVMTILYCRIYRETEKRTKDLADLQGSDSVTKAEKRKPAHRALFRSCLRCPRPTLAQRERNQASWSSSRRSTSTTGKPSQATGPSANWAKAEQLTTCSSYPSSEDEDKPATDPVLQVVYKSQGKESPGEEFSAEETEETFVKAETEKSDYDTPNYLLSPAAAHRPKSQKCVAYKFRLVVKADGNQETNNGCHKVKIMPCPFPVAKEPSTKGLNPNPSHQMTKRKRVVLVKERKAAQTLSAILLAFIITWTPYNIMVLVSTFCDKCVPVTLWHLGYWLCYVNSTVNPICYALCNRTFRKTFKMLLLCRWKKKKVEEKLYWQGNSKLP

[7] = target: 5-hydroxytryptamine receptor 1B (Homo sapiens) (UniProt P28222); test: Inhibition of Serotonin (5-Hydroxytryptamine) 5-HT1B at 10 µM in the Eurofins-Panlabs radioligand binding assay (Eurofins_assay_271200); settings: Compound concentration 10.0 uM
[8] = target: 5-hydroxytryptamine receptor 6 (Homo sapiens) (UniProt P50406); test: Inhibition of Serotonin (5-Hydroxytryptamine) 5-HT6 at 10 µM in the Eurofins-Panlabs radioligand binding assay (Eurofins_assay_272200)
Sequence of 5-hydroxytryptamine receptor 6 (Homo sapiens) (P50406 whole entry): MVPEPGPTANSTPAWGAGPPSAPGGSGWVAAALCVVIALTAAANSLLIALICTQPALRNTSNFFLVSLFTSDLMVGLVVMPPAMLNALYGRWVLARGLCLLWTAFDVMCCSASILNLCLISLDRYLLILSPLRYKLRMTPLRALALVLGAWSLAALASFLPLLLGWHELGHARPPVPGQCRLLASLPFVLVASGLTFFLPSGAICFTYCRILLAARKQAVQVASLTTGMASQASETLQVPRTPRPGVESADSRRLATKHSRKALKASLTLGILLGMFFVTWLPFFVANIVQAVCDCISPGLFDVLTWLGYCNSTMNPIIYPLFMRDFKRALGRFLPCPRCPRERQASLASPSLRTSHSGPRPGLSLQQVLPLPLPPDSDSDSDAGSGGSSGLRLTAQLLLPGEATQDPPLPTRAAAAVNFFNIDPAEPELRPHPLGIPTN

Caspase-8 (Homo sapiens) = Caspase-8 (Homo sapiens) (UniProt Q14790); test: Peptidase, CASP8 (Caspase 8) Eurofins-Panlabs enzyme assay; settings: concentration not given here
Sequence of Caspase-8 (Homo sapiens) (Q14790 217-374 limits assumed): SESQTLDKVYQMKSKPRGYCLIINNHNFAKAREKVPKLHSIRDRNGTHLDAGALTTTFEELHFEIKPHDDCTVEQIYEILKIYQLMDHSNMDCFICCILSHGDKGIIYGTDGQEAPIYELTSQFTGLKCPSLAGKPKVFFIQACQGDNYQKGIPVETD
Sequence of Caspase-8 (Homo sapiens) (Q14790 385-479 limits assumed): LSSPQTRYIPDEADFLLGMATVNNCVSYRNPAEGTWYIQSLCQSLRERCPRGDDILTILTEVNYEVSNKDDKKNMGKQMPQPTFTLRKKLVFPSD

[9] = target: T2, Prostaglandin E2 receptor EP3 subtype (Homo sapiens) (UniProt P43115); test: (§2) Prostanoid EP3 Eurofins-Panlabs radioligand binding assay; set-up: ligand concentration 0.5 nM, non-specific ligand with concentration 10 µM Prostaglandin EŽ2 (PGE2), incubation time 60 min, incubation temperature 25 °C
T2 sequence (whole entry): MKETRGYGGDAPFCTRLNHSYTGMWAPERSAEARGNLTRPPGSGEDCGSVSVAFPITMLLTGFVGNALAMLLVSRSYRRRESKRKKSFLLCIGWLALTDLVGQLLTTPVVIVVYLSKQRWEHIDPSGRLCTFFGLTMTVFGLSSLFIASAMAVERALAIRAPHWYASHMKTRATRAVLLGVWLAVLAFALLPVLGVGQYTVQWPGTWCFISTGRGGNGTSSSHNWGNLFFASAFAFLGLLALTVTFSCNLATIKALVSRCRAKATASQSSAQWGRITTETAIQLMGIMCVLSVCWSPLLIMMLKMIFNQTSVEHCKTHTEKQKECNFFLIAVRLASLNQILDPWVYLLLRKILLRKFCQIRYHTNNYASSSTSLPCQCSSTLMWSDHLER

[10] = target: Prostaglandin E2 receptor EP3 subtype (Homo sapiens, UniProt P43115); test: as §2; set-up: ligand concentration 0.5 nM, non-specific ligand with concentration 10 µM Prostaglandin EŽ2 (PGE2), incubation time 60 min, incubation temperature 25 °C
[11] = target: Neprilysin (Homo sapiens) (UniProt P08473); test: Peptidase, Metalloproteinase, Neutral Endopeptidase Eurofins-Panlabs enzyme assay; settings: Compound concentration 10.0 uM
[12] = target: Epidermal growth factor receptor (Homo sapiens, UniProt P00533); test: Protein Tyrosine Kinase, EGF Receptor Eurofins-Panlabs enzyme assay; set-up: substrate with concentration 10 µg/mL Poly(Glu:Tyr), incubation time 60 min, incubation temperature 25 °C
Sequence of Epidermal growth factor receptor (P00533 whole entry): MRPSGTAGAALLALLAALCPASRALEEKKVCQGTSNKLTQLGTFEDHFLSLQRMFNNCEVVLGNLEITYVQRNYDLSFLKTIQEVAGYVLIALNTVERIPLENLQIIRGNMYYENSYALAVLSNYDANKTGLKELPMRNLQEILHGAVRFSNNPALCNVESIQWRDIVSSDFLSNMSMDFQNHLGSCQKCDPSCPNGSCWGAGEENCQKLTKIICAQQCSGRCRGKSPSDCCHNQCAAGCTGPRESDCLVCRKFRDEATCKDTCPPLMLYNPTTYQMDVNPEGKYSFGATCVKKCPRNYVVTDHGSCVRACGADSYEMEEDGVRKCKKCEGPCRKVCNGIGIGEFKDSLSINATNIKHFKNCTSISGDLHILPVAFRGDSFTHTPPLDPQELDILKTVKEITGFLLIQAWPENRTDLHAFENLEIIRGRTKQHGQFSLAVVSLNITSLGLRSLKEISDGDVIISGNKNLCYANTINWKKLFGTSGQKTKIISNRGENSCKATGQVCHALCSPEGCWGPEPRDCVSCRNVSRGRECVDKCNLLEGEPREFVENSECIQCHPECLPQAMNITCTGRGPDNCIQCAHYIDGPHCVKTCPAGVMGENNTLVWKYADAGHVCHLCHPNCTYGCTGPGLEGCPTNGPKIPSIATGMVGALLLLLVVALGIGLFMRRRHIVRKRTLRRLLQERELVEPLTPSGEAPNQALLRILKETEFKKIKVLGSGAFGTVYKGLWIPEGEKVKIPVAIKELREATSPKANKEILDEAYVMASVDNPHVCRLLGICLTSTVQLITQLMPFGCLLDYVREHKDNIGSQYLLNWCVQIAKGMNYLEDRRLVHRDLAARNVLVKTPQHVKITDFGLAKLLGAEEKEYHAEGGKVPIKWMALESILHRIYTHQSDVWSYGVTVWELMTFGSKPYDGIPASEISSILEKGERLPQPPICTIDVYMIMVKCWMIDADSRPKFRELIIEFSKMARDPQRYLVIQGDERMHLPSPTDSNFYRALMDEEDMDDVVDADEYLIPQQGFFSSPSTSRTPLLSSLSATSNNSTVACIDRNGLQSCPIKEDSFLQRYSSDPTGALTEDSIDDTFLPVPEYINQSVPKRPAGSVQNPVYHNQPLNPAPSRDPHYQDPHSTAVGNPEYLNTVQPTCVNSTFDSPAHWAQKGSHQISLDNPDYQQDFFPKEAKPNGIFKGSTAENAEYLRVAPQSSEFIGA

[13] = target: Tyrosine-protein phosphatase non-receptor type 2 (Homo sapiens) (UniProt P17706); test: Protein Tyrosine Phosphatase, PTPN2 (TCPTP) Eurofins-Panlabs enzyme assay; set-up: substrate with concentration DiFMUP, incubation time 60 min, incubation temperature 37 °C; settings: Compound concentration 10.0 uM
Sequence of Tyrosine-protein phosphatase non-receptor type 2 (Homo sapiens) (P17706 whole entry): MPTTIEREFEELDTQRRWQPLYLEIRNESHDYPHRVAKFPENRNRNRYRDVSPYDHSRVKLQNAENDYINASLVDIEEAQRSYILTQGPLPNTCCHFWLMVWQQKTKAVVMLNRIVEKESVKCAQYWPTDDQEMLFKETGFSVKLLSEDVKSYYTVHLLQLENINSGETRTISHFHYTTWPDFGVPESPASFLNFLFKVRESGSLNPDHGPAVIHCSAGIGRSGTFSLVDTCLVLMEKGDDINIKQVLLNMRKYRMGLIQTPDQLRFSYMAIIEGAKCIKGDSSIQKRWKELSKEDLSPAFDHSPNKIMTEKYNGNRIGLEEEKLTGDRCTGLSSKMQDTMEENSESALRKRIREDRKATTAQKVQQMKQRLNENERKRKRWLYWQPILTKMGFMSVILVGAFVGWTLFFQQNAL

[14] = target: Cannabinoid receptor 1 (Homo sapiens) (UniProt P21554); test: Cannabinoid CB1 Eurofins-Panlabs radioligand binding assay; settings: Compound concentration 10.0 uM
Sequence of Cannabinoid receptor 1 (Homo sapiens) (P21554 whole entry): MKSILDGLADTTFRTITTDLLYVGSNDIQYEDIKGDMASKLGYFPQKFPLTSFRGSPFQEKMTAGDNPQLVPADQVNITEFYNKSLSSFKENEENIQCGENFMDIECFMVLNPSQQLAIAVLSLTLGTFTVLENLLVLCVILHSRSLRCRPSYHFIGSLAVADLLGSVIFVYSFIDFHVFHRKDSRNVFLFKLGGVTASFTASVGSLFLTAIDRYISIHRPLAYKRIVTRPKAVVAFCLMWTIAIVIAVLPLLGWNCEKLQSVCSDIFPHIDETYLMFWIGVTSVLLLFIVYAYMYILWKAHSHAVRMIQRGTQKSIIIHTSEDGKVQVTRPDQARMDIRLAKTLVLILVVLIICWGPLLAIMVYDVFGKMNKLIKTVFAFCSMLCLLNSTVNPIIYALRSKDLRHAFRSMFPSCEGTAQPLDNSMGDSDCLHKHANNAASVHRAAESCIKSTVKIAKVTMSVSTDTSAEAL

[15] = (§3) Cholecystokinin CCK2 (CCKB) Eurofins-Panlabs radioligand binding assay; set-up: species or system Homo sapiens; ligand concentration 0.072 nM, non-specific ligand with concentration 1 µM Sincalide, incubation time 3 h, incubation temperature 25 °C
Homo sapiens [16] = species on record: Homo sapiens; test: as §3; set-up: ligand concentration 0.072 nM, non-specific ligand with concentration 1 µM Sincalide, incubation time 3 h, incubation temperature 25 °C
[17] = target: Glutamate NMDA receptor; GRIN1/GRIN2A (Homo sapiens) (UniProt Q05586+Q12879); test: NMDA-NR1a/NR2a Eurofins-Panlabs radioligand binding assay; type: protein-complex assay; settings: Compound concentration 10.0 uM
[18] = target: Prostaglandin D2 receptor (Homo sapiens) (UniProt Q13258); test: Prostanoid DP Eurofins-Panlabs radioligand binding assay; settings: Compound concentration 10.0 uM
Sequence of Prostaglandin D2 receptor (Homo sapiens) (Q13258 whole entry): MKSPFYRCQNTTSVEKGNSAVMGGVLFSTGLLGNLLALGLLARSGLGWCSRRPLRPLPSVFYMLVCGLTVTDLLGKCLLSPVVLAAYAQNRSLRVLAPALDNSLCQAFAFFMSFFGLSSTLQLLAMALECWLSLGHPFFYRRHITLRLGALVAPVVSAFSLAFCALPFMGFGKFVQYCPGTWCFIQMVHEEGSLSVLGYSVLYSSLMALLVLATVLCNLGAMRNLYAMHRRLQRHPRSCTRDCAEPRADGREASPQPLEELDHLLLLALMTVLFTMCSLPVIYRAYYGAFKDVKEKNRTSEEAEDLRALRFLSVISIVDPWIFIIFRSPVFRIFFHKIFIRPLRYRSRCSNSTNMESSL

[19] = target: Somatostatin receptor type 5 (Homo sapiens) (UniProt P35346); test: Somatostatin sst5 Eurofins-Panlabs radioligand binding assay; settings: Compound concentration 10.0 uM
[20] = target: Neuromedin-K receptor (Homo sapiens) (UniProt P29371); test: Tachykinin NK3 Eurofins-Panlabs radioligand binding assay; set-up: ligand concentration 0.8 nM; settings: Compound concentration 10.0 uM
Sequence of Neuromedin-K receptor (Homo sapiens) (P29371 whole entry): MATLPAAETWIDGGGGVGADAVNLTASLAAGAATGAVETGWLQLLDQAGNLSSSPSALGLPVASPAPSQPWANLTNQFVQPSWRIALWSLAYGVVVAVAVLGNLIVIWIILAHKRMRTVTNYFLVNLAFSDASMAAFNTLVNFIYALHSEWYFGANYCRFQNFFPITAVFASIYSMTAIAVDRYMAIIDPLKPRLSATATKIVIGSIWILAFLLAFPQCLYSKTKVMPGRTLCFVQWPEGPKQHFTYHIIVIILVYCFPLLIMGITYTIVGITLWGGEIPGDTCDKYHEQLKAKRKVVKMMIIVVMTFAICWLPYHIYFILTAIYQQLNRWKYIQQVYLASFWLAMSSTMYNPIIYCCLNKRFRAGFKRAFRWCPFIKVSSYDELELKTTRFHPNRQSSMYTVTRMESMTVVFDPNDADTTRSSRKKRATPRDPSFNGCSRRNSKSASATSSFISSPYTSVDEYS

[21] = target: D(3) dopamine receptor (Homo sapiens) (UniProt P35462)
Sequence of D(3) dopamine receptor (Homo sapiens) (P35462 whole entry): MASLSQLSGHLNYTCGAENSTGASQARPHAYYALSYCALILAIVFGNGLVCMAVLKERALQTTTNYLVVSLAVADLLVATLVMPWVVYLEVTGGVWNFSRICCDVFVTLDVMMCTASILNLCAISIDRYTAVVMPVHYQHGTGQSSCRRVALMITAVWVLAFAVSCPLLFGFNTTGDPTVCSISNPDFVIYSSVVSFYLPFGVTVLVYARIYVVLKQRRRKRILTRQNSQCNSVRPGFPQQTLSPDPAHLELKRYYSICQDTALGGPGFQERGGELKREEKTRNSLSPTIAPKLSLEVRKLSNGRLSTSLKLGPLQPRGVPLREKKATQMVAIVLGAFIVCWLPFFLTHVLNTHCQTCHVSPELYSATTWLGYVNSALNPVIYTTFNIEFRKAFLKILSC

[22] = target: Endothelin receptor type B (Homo sapiens) (UniProt P24530); settings: Compound concentration 10.0 uM
Sequence of Endothelin receptor type B (Homo sapiens) (P24530 whole entry): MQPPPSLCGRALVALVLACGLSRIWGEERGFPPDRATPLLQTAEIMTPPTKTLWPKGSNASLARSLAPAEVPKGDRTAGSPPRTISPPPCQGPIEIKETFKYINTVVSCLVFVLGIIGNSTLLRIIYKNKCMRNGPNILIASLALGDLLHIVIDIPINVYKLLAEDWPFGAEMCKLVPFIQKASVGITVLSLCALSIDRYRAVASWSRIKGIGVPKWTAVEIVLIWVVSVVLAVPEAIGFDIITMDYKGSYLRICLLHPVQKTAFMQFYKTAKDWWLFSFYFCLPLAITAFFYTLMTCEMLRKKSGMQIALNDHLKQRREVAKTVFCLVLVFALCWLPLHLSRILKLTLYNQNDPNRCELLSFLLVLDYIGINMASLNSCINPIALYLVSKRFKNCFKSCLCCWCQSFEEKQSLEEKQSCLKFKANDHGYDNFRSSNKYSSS

[23] = target: Muscarinic acetylcholine receptor M3 (Homo sapiens) (UniProt P20309); settings: Compound concentration 10.0 uM
Homo sapiens [24] = species on record: Homo sapiens

O=C(O)c1cc(-c2ccc(C3CCNCC3)cc2)c2ccc(-c3ccc(C(F)(F)F)cc3)cc2c1 [PPTN]
inhibition at 3 h, 10 µM [1]: 11% (not active)
inhibition at 90 min, 10 µM [2]: 20% (not active)
IC50 [3]: 7.01 µM
Ki [3]: 4 µM
IC50 [4]: 100 µM
inhibition (Homo sapiens [5]; Compound concentration 0.1 uM): -6%
inhibition (Homo sapiens [5]; Compound concentration 1.0 uM): 0%
inhibition (Homo sapiens [5]; Compound concentration 10.0 uM): 24%
inhibition (Homo sapiens [5]; Compound concentration 100.0 uM): 49%
inhibition [6]: 39%
inhibition [7]: -4%
inhibition [8]: 7%
inhibition (Caspase-8 (Homo sapiens)): 7%
inhibition ([9]; Compound concentration 0.01 uM): 11%
inhibition ([9]; Compound concentration 0.1 uM): 14%
inhibition ([9]; Compound concentration 1.0 uM): 4%
inhibition ([9]; Compound concentration 10.0 uM): 53%
IC50 [10]: 9.27 µM
inhibition [11]: 1%
IC50 [12]: 4.59 µM
inhibition ([12]; Compound concentration 0.01 uM): -6%
inhibition ([12]; Compound concentration 0.1 uM): -3%
inhibition ([12]; Compound concentration 1.0 uM): 12%
inhibition ([12]; Compound concentration 10.0 uM): 74%
inhibition [13]: -4%
inhibition [14]: -6%
IC50 [15]: 10 µM
inhibition (Homo sapiens [16]; Compound concentration 0.01 uM): 3%
inhibition (Homo sapiens [16]; Compound concentration 0.1 uM): -1%
inhibition (Homo sapiens [16]; Compound concentration 1.0 uM): 0%
inhibition (Homo sapiens [16]; Compound concentration 10.0 uM): 48%
inhibition [17]: 12%
inhibition [18]: 12%
inhibition [19]: 20%
inhibition [20]: 29%
inhibition ([21]; Compound concentration 0.01 uM): 3%
inhibition ([21]; Compound concentration 0.1 uM): 1%
inhibition ([21]; Compound concentration 1.0 uM): 12%
inhibition ([21]; Compound concentration 10.0 uM): 56%
inhibition [22]: -1%
inhibition [23]: 11%
inhibition (Homo sapiens [24]; Compound concentration 0.01 uM): -3%
inhibition (Homo sapiens [24]; Compound concentration 0.1 uM): -3%
inhibition (Homo sapiens [24]; Compound concentration 1.0 uM): -8%
inhibition (Homo sapiens [24]; Compound concentration 10.0 uM): 67%
